Assay: xn = mol fraction of the nth substance listed
Conditions: 100 kPa, Liquid; for mass density: Vibrating tube method; for viscosity: Concentric cylinders viscometry

CCCCn1cc[n+](C)c1.O=[N+]([O-])[O-] [1-butyl-3-methylimidazolium nitrate] + CC(C)O
Conditions	mass density, 308.15 K [kg/m3]	mass density, 313.15 K [kg/m3]	mass density, 318.15 K [kg/m3]	mass density, 323.15 K [kg/m3]	viscosity, 313.15 K [mPa·s]	viscosity, 318.15 K [mPa·s]	viscosity, 323.15 K [mPa·s]
x1 = 0.0815	841.9	837.9	833.7	829.5	2.53	2.25	2
x1 = 0.1596	894.8	891.1	887.1	883.3	3.95	3.53	3.09
x1 = 0.2405	940.1	936.5	932.8	929.2	5.7	5.15	4.61
x1 = 0.3495	989.6	986.4	982.9	979.5	8.96	7.91	7.17
x1 = 0.4405	1023.7	1020.6	1017.3	1014.1	12.29	10.89	9.8
x1 = 0.5607	1060.8	1057.8	1054.7	1051.7	17.93	15.75	14.17
x1 = 0.6506	1084.2	1081.3	1078.3	1075.4	23.42	20.46	18.14
x1 = 0.7413	1104.7	1101.7	1098.9	1096.1	30.6	26.05	23.09
x1 = 0.8515	1126	1123.2	1120.5	1117.8	42.3	35.1	30.31
x1 = 0.9396	1140.6	1137.8	1135	1132.5	58.7	45.9	37.81
x1 = 1	1149.3	1146.5	1143.8	1141.2	75.12	56.28	45.17
